Data: patent US11311542B2, “Inhibitors of cyclin dependent kinase 7 (CDK7)” (Syros Pharmaceuticals, Inc., priority 2018, dated 2022)

Experiments:
HCC70 cells = experiment: Inhibition of cell proliferation (CyQUANT Direct), HCC70; format: cell-based, human; settings: Homo sapiens, HCC70, 72-hour
Procedure: (§1) HCC70 and MB453 cells are cell lines derived from human triple negative breast cancer COV318 and COV504 cells are cell lines derived from human ovarian cancer. Representative compounds of the invention were tested at different concentrations (from 4 μM to 126.4 pM; 0.5 log serial dilutions) for their ability to inhibit the proliferation of each of these cell lines. Known CDK inhibitors dinaciclib or N-((1S,3R)-3-((5-chloro-4-(1H-indol-3-yl) pyrimidin-2-yl)amino)cyclohexyl)-5-((E)-4-(dimethylamino)but-2-enamido)picolinamide and triptolide were used as positive controls. Cells were seeded at approximately 2,000 cells/well and grown in ATCC-formulated RPMI-1640 Medium (ATCC 30-2001)+10% FBS. The cells were cultured at 37° C. in a humidified chamber in the presence of 5% CO2. Proliferation assays were conducted over a 72-hour time period. CyQUANT® Direct Cell Proliferation Assay (Life Technologies, Chicago, Ill. USA) was used to assess the anti-proliferative effects of the compounds following manufacturer's directions and utilizing the reagents supplied with the CyQUANT® Direct Cell kit.

COV318 cells = experiment: Inhibition of cell proliferation (CyQUANT Direct), COV318; format: cell-based, human; settings: Homo sapiens, COV318, 72-hour
Procedure: as §1

COV504 cells = experiment: Inhibition of cell proliferation (CyQUANT Direct), COV504; format: cell-based, human; settings: Homo sapiens, COV504, 72-hour
Procedure: as §1

MB453 cells = experiment: Inhibition of cell proliferation (CyQUANT Direct), MB453; format: cell-based, human; settings: Homo sapiens, MB453, 72-hour
Procedure: as §1

CDK2/Cyclin E1 complex = CDK2/Cyclin E1 complex (Homo sapiens, UniProt P24941); experiment: CDK2 kinase inhibition assay (Caliper/LabChip EZ Reader)
[1] = molecular target: CDK7/Cyclin H/MAT1 complex (Homo sapiens, UniProt P50613); experiment: CDK7 kinase inhibition assay (Caliper/LabChip EZ Reader)
Procedure: (§2) Compounds described herein were assayed for inhibition of CDK7, CDK9, CDK12, and CDK2 activity at Biortus Biosciences (Jiangyin, Jiangsu Province, P.R. of China) using kinase assays for each CDK developed with a Caliper/LabChip EZ Reader (Perkin Elmer, Waltham, Mass.).
(§3) Furthermore, the CDK9 inhibition assay used CDK9/Cyclin T1 complex (8 nM) and “5-FAM-CDK9tide” peptide substrate (2 μM, synthesized fluorophore-labeled peptide with the following sequence: 5-FAM-GSRTPMY-NH2 (SEQ ID NO:2) where 5-FAM is defined above and NH2 signifies a C-terminal amide) with 10 mM MgCl2 in the buffer composition listed above. The CDK12 inhibition assay used CDK12 (aa686-1082)/Cyclin K complex (50 nM) and “5-FAM-CDK9tide” (2 μM) as defined above, with 2 mM MgCl2 in the buffer composition above. Additionally, the CDK2 inhibition assay used CDK2/Cyclin E1 complex (0.5 nM) and “5-FAM-CDK7tide” (2 μM; defined above) with 2 mM MgCl2 in the buffer composition above.
(§4) The incubation period at 27° C. for each CDK inhibition assay was chosen such that the fraction of phosphorylated peptide product produced in each assay, relative to the total peptide concentration, was approximately 20% (±5%) for the uninhibited kinase (35 min. for CDK7, 35 min. for CDK2, 3 hr. for CDK12, 15 min. for CDK9).

CDK9/Cyclin T1 complex = CDK9/Cyclin T1 complex (Homo sapiens, UniProt P50750); experiment: CDK9 kinase inhibition assay (Caliper/LabChip EZ Reader)
Procedure: as §2, §3, §4

[2] = molecular target: CDK12 (aa686-1082)/Cyclin K complex (Homo sapiens, UniProt Q9NYV4); experiment: CDK12 kinase inhibition assay (Caliper/LabChip EZ Reader)
CDK12 (aa686-1082)/Cyclin K complex, sequence (Q9NYV4 686-1082): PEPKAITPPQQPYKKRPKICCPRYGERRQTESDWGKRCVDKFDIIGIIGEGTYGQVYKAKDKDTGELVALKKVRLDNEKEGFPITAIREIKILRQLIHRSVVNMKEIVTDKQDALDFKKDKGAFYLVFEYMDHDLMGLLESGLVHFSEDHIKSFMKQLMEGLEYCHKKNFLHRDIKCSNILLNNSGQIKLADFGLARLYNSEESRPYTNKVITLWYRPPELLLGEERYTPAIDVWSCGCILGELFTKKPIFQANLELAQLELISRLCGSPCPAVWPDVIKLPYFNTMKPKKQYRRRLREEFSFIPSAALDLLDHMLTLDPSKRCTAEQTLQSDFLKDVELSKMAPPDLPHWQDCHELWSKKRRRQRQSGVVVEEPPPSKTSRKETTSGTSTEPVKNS
CDK12 (aa686-1082)/Cyclin K complex, sequence (O75909 whole entry partner, the tested form may be a part): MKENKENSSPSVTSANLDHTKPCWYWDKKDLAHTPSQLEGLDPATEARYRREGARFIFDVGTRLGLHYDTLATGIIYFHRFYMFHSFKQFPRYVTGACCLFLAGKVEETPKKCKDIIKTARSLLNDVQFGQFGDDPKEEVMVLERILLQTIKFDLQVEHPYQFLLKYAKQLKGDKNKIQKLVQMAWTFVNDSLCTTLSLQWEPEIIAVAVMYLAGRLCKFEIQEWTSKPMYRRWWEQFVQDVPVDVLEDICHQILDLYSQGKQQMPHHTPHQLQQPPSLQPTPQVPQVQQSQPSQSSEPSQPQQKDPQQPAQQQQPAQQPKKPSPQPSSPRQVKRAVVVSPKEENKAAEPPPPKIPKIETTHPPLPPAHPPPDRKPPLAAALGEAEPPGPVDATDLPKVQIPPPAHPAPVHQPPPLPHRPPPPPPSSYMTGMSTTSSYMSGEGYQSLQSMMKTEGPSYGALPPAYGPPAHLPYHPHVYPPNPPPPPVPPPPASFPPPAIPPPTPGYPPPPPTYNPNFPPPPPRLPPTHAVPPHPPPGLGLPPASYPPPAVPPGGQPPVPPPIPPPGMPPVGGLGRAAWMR

CDK7/Cyclin H/MAT1 complex, sequence (P50613 whole entry): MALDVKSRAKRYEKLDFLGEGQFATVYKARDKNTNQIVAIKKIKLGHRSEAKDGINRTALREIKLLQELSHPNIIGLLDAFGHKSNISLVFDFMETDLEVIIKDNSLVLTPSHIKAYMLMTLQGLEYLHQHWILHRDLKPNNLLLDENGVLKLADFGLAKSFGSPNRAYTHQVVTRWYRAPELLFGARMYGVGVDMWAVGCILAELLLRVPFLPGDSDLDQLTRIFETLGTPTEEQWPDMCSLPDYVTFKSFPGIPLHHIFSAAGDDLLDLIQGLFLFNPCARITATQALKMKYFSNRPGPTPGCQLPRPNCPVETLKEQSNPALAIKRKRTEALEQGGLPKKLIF
CDK7/Cyclin H/MAT1 complex, sequence (P51946 whole entry partner): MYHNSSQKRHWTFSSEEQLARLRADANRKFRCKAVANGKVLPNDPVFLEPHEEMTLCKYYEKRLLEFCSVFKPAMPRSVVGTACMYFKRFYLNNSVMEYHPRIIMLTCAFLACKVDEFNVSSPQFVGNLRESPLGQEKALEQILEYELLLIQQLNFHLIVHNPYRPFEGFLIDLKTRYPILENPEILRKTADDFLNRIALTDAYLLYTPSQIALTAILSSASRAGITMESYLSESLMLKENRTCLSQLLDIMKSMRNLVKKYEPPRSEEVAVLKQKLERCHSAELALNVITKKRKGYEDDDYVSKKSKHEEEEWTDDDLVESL
CDK7/Cyclin H/MAT1 complex, sequence (P51948 whole entry partner): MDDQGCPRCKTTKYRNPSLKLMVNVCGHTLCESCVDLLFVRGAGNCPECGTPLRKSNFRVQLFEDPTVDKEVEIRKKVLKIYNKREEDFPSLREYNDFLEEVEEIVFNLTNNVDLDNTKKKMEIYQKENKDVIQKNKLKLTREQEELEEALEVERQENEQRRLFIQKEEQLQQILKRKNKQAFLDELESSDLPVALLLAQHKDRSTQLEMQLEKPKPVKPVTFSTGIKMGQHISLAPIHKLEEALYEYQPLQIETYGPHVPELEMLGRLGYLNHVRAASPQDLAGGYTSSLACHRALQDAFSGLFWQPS
CDK9/Cyclin T1 complex, sequence (P50750 whole entry, the tested form may be a part): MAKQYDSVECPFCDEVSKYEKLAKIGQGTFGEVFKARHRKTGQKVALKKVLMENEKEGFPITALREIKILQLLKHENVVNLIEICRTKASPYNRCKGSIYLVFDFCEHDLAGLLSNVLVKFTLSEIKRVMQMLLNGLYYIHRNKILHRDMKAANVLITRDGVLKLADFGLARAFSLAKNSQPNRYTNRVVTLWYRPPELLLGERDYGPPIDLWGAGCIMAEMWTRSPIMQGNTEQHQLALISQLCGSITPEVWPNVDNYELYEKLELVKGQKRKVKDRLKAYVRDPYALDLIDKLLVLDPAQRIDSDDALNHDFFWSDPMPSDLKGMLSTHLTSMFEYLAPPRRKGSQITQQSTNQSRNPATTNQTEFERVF
CDK9/Cyclin T1 complex, sequence (O60563 whole entry partner, the tested form may be a part): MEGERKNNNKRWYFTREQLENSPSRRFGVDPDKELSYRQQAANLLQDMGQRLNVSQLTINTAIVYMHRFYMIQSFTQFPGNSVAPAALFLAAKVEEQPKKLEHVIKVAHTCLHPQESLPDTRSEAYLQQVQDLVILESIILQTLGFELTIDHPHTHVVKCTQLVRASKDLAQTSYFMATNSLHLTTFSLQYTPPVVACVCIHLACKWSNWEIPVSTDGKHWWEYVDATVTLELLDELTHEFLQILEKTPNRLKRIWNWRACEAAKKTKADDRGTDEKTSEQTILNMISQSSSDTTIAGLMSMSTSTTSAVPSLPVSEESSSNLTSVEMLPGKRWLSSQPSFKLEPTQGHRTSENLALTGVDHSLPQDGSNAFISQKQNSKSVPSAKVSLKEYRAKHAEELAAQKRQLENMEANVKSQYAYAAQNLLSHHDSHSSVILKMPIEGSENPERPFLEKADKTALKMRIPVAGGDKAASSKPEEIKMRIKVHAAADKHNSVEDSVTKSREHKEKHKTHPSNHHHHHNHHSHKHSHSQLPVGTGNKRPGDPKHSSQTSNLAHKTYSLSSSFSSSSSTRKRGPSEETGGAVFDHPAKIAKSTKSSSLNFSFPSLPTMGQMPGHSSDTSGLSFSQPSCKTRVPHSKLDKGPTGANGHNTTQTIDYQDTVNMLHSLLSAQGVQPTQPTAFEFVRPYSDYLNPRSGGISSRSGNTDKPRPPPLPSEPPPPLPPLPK

SMILES	IC50 (HCC70 cells)	IC50 (COV318 cells)	IC50 (COV504 cells)	IC50 (MB453 cells)	IC50 (CDK2/Cyclin E1 complex)	IC50 [1]	IC50 (CDK9/Cyclin T1 complex)	IC50 [2]
Cc1nnc(C)n1-c1ccc2c(-c3nc(N[C@H]4CCCNC4)ncc3C(F)(F)F)c[nH]c2n1 [Compound 140, 4-[6-(3,5-dimethyl-1,2,4-triazol-4-yl)-1H-pyrrolo[2,3-b]pyridin-3-yl]-N-[(3S)-3-piperidyl]-5-(trifluoromethyl)pyrimidin-2-amine]	> 1000 nM	> 1000 nM	100 to 500 nM	500 to 1000 nM	> 500 nM	< 30 nM	> 500 nM	> 500 nM
Cc1nnnn1-c1ccc2c(-c3nc(N[C@H]4CCCNC4)ncc3C(F)(F)F)c[nH]c2n1 [Compound 141, 4-[6-(5-methyltetrazol-1-yl)-1H-pyrrolo[2,3-b]pyridin-3-yl]-N-[(3S)-3-piperidyl]-5-(trifluoromethyl)pyrimidin-2-amine]	100 to 500 nM	100 to 500 nM	< 100 nM	100 to 500 nM	> 500 nM	< 30 nM	> 500 nM	> 500 nM
Cc1nsc(-c2ccc3c(-c4nc(N[C@H]5CCCNC5)ncc4C(F)(F)F)c[nH]c3n2)n1 [Compound 142]	< 100 nM	500 to 1000 nM	< 100 nM	< 100 nM	> 500 nM	< 30 nM	> 500 nM	> 500 nM
Cc1noc(C)c1-c1ccc2c(-c3nc(N[C@H]4CCC(C)(C)NC4)ncc3C(F)(F)F)n[nH]c2n1 [Compound 144]	< 100 nM	> 1000 nM	< 100 nM	< 100 nM	> 500 nM	< 30 nM	> 500 nM	> 500 nM
CNC(=O)[C@H]1CNC[C@@H](Nc2ncc(C(F)(F)F)c(-c3c[nH]c4nc(-c5nccs5)ccc34)n2)C1 [Compound 145, (3R, 5S)—N-methyl-5-[[4-(6-thiazol-2-yl-1H-pyrrolo[2,3-b]pyridin-3-yl)-5-(trifluoromethyl)pyrimidin-2-yl]amino]piperidine-3-carboxamide]	100 to 500 nM	> 1000 nM	100 to 500 nM	100 to 500 nM	> 500 nM	< 30 nM	> 500 nM	> 500 nM
Cc1noc(C)c1-c1ccc2c(-c3nc(N[C@@H]4CNC[C@H](O)C4)ncc3C(F)(F)F)n[nH]c2n1 [Compound 146, (3R, 5S)-5-[[4-[6-(3,5-dimethylisoxazol-4-yl)-1H-pyrazolo[3,4-b]pyridin-3-yl]-5-(trifluoromethyl)pyrimidin-2-yl]amino]piperidin-3-ol]	500 to 1000 nM	> 1000 nM	100 to 500 nM	100 to 500 nM	> 500 nM	< 30 nM	> 500 nM	> 500 nM
Cc1nocc1-c1ccc2c(-c3nc(N[C@@H]4CNC[C@H](O)C4)ncc3C(F)(F)F)c[nH]c2n1 [Compound 148, (3R,5S)-5-[[4-[6-(3-methylisoxazol-4-yl)-1H-pyrrolo[2,3-b]pyridin-3-yl]-5-(trifluoromethyl)pyrimidin-2-yl]amino]piperidin-3-ol]	> 1000 nM	> 1000 nM	500 to 1000 nM	100 to 500 nM	> 500 nM	< 30 nM	> 500 nM	> 500 nM
Cc1nscc1-c1ccc2c(-c3nc(N[C@H]4CCCNC4)ncc3C(F)(F)F)c[nH]c2n1 [Compound 149]	< 100 nM	< 100 nM	< 100 nM	< 100 nM	> 500 nM	< 30 nM	> 500 nM	> 500 nM
C[C@H]1CC[C@H](Nc2ncc(C(F)(F)F)c(-c3c[nH]c4nc(-c5cnnn5C)ccc34)n2)CN1 [Compound 150, N-[(3S,6S)-6-methyl-3-piperidyl]-4-[6-(3-methyltriazol-4-yl)-1H-pyrrolo[2,3-b]pyridin-3-yl]-5-(trifluoromethyl)pyrimidin-2-amine]	100 to 500 nM	100 to 500 nM	< 100 nM	< 100 nM	> 500 nM	< 30 nM	> 500 nM	> 500 nM
C[C@@H]1CC[C@@H](Nc2ncc(C(F)(F)F)c(-c3c[nH]c4nc(-c5cnnn5C)ccc34)n2)CN1 [Compound 151, N-[(3R,6R)-6-methyl-3-piperidyl]-4-[6-(3-methyltriazol-4-yl)-1H-pyrrolo[2,3-b]pyridin-3-yl]-5-(trifluoromethyl)pyrimidin-2-amine]	> 1000 nM	> 1000 nM	> 1000 nM	500 to 1000 nM	> 500 nM	< 30 nM	> 500 nM	> 500 nM
Cc1noc(C)c1-c1ccc2c(-c3nc(N[C@@H]4CC[C@@H](C)NC4)ncc3C(F)(F)F)n[nH]c2n1 [Compound 153, 4-[6-(3,5-dimethylisoxazol-4-yl)-1H-pyrazolo[3,4-b]pyridin-3-yl]-N-[(3R,6R)-6-methyl-3-piperidyl]-5-(trifluoromethyl)pyrimidin-2-amine]	< 100 nM	< 100 nM	< 100 nM	< 100 nM	> 500 nM	< 30 nM	> 500 nM	> 500 nM
Cc1nnc(-c2ccc3c(-c4nc(N[C@H]5CC[C@H](C)NC5)ncc4C(F)(F)F)c[nH]c3n2)s1 [Compound 154, N-[(3S,6S)-6-methyl-3-piperidyl]-4-[6-(5-methyl-1,3,4-thiadiazol-2-yl)-1H-pyrrolo[2,3-b]pyridin-3-yl]-5-(trifluoromethyl)pyrimidin-2-amine]	100 to 500 nM	> 1000 nM	100 to 500 nM	> 1000 nM	> 500 nM	< 30 nM	> 500 nM	> 500 nM
Cc1nnc(-c2ccc3c(-c4nc(N[C@H]5CCCNC5)ncc4C(F)(F)F)c[nH]c3n2)s1 [Compound 155, 4-[6-(5-methyl-1,3,4-thiadiazol-2-yl)-1H-pyrrolo[2,3-b]pyridin-3-yl]-N-[(3S)-3-piperidyl]-5-(trifluoromethyl)pyrimidin-2-amine]	< 100 nM	< 100 nM	< 100 nM	< 100 nM	> 500 nM	< 30 nM	> 500 nM	> 500 nM
Cc1nocc1-c1ccc2c(-c3nc(N[C@H]4CC[C@H](C)NC4)ncc3C(F)(F)F)c[nH]c2n1 [Compound 156, 4-[6-(3-methylisoxazol-4-yl)-1H-pyrrolo[2,3-b]pyridin-3-yl]-N-[(3S,6S)-6-methyl-3-piperidyl]-5-(trifluoromethyl)pyrimidin-2-amine]	500 to 1000 nM	> 1000 nM	100 to 500 nM	100 to 500 nM	> 500 nM	< 30 nM	> 500 nM	> 500 nM
Cc1nocc1-c1ccc2c(-c3nc(N[C@@H]4CC[C@@H](C)NC4)ncc3C(F)(F)F)c[nH]c2n1 [Compound 157, 4-[6-(3-methylisoxazol-4-yl)-1H-pyrrolo[2,3-b]pyridin-3-yl]-N-[(3R,6R)-6-methyl-3-piperidyl]-5-(trifluoromethyl)pyrimidin-2-amine]	< 100 nM	< 100 nM	< 100 nM	< 100 nM	> 500 nM	< 30 nM	> 500 nM	> 500 nM
